Source: US12144791B2, “KRAS agonists, pharmaceutical compositions, and uses in managing cancer” (Emory University, priority 2019, dated 2024)

Columns and labels:
A549 and H157 cells = assay: Western blot of autophagy marker p62 with or without chloroquine; format: cell-based, human; conditions: 48 h, in combination with KRA-533
Description: To assess whether the autophagy inhibitor regulates KRA-533-induced autophagy formation, A549 and H157 cells were treated with KRA-533 in the absence or presence of autophagy inhibitor chloroquine for 48 h, followed by Western blot analysis of the autophagy marker p62.

A549 and H157 = assay: Annexin V/PI apoptosis, KRA-533 alone or with 3-MA; format: cell-based, human; conditions: 48 h, in combination with KRA-533
Description: To determine whether autophagy plays a role in apoptosis induced by KRA-533, apoptosis was measured by FACS analysis of Annexin V/PI staining following treatments of A549 and H157 with KRA533 alone or in combination with autophagy inhibitor 3-MA for 48 h.

CCN(CC)CCCC(C)Nc1ccnc2cc(Cl)ccc12 (centres unmarked) [chloroquine, reference compound]
p62 expression, chloroquine added to KRA-533 (A549 and H157 cells): restored p62 expression by blocking KRA-533-induced p62 degradation

Cn1cnc(N)c2ncnc1-2 [3-MA, 3-methyladenine]
KRA-533-induced apoptosis, 3-MA added (A549 and H157): enhanced KRA-533-induced apoptosis
